Measurements from patent publication US10603325B2, “Methods of treating age-related symptoms in mammals and compositions therefor” (University of Maryland, priority 2014, dated 2020).
Entries after “also recorded” stand apart in the source; their conditions may differ.

How the values were obtained:
[1] = system: EpiDerm Full Thickness (EFT-412); assay: ECM gene expression analysis (quantitative PCR array); type: cell-based; details: MB for two weeks
Experimental: The expression of ECM genes were analyzed by quantitative PCR array on EpiDerm Full Thickness (EFT-412).
EFT-412 tissues were treated with MB for 2 weeks. […] Using RCP arrays for ECM remodeling genes. See results obtained in FIG. 14.

[2] = system: mitochondria in normal and HGPS fibroblasts; assay: TEM scoring of mitochondrial abnormalities; type: cell-based, human; details: MB 100 nM, 8 weeks
Experimental: (§1) (Upper panel). Normalized relative HP1α protein levels in each sample are shown in the lower graph.
(§2) To evaluate the effects of MB on mitochondria, ATP levels, mitochondrial superoxide (MitoSOX) and overall intracellular ROS (DCFDA) in Mock or MB-treated cells.
(§3) Passage-matched normal or HGPS skin fibroblasts were grown on 35-mm glass bottom dish until 80% confluence. Cells were prepared for transmission electron microscopic analysis following the protocol of McCord et al. Briefly, cells were fixed with 2.5% glutaraldehyde in 0.1 M sodium cacodylate (pH 7.4) for one hour at room temperature. Specimens were washed three times with 0.1 M sodium cacodylate and post-fixed for one hour with 1% osmium tetroxide in 0.1 M sodium cacodylate at room temperature. After washing three times with distilled water, specimens were incubated with 2% aqueous uranyl acetate at room temperature. The specimens were dehydrated in ethanol gradients: 35% for 10min, 50% for 10min, 70% for 10min, for 95% for 10 min, and 100% for 3×5 min. […] Mitochondrial morphological quantification was conducted blindly by a trained TEM expert. Two observers scored over 360 mitochondria from 10 randomly selected cells in each group blindly. […] Over 300 mitochondria in either normal or HGPS lines were blindly scored according to these criteria.

[3] = system: PGC-1α in normal and HGPS fibroblasts; assay: PGC-1α expression (western blot, quantitative RT-PCR); type: cell-based, human; details: MB 100 nM, 8 weeks
HGPS fibroblasts = assay: RNA-seq gene expression differential analysis; type: cell-based, human
Experimental: (§4) FIG. 6(A)-(B): Methylene Blue Rescues Gene Expression in HGPS Cells • (A) Pie chart showing the percentages and (B) the counted gene numbers of unaffected- and affected-genes in paired comparison among four groups (Normal+Vehicle vs. Progeria+Vehicle; Normal+Vehicle vs. Normal+MB; Progeria+Vehicle vs. Progeria+MB; and Normal+Vehicle+Progeria+MB).
(§5) Chromatin re-organization after MB treatment may induce gene expression changes. To examine the effects of MB on gene expression, RNA-seq was conducted in Mock and MB treated normal and HGPS cells, and gene expression differential analysis was performed using Tophat and Cufflinks suite of tools (see Methods). The RNA-seq data was obtained from two biological replicates; each included four groups of samples (Normal+Vehicle; Normal+MB; HGPS+Vehicle; and HGPS+MB). Pairwise comparisons were conducted (FIG. 6A-B). Consistent with previous studies, there are more than 20% differentially expressed genes (up/down: 7.79%/14.18%) in HGPS cells vs. normal fibroblasts (FIG. 6A-1).
(§6) For RNA sequencing experiments, the cell pellets of Normal or HGPS fibroblasts were collected from two individually cultured cells treated with vehicle or 100 nM MB from P15 or P16 to P20. Total RNA was extracted with Trizol (Life Sciences), followed by RNA precipitation with isopropanol, then purified using the RNeasy Mini Kit (Qiagen). The RNA quality was checked using Agilent 2100 Bioanalyzer showing good RIN numbers (8.90=9.70) in all eight samples. The RNA-seq sample preparation and sequencing were conducted according to the Illumina Truseq RNA sample preparation V2 guide by the IBBR Sequencing Core Facility at the University of Maryland. RNA-seq mapping and gene expression differential analysis was performed using Tophat and Cufflinks suite of tools as described previously by Trapnell et al.

normal fibroblasts = assay: RNA-seq gene expression differential analysis; type: cell-based, human; details: Normal+Vehicle vs. Normal+MB, 100 nM
Experimental: as §4, §5, §6

[4] = system: Epiderm Full Thickness (EFT-412) skin tissue; assay: Histological analysis (H&E) of skin tissue; type: cell-based; details: MB at various concentration for two weeks
Source text: H&E staining on the MB treated skin tissues. […] See the results obtained in FIG. 15.

progerin in HGPS cells = assay: Confocal microscopy of progerin distribution; type: cell-based, human; details: MB treated HGPS cells, anti-progerin antibody staining
HGPS cells [5] = assay: Perinuclear heterochromatin (TEM) and HP1α immunostaining/western blotting; type: cell-based, human
Source text: as §1
Based on the results from FIG. 4 and FIGS. 5A-D, it was hypothesized that While MB is a universal mitochondrial-targeting antioxidant for both normal and HGPS cells, it has a specific role in HGPS cells by dislocating progerin away from the nuclear membrane. Previous studies reported that the anchorage of progerin to the nuclear membrane caused a loss of perinuclear heterochromatin in HGPS Cells. […] The rescue of heterochromatin loss by MB was further verified by immunostaining and western blotting using an antibody against heterochromatin protein 1alpha (HP1α).
as §3, with “min. The infiltration was performed in EtOH: EPON resin mixture at various ratio from 1:1, 1:2, 1:3 or complete EPON for one hour each ratio. The specimens were finally embedded in complete EPON at 60° C. over night.” for “min.”

[6] = system: normal and HGPS fibroblasts; assay: ROS assays by flow cytometry (MitoSOX, DCFDA); type: cell-based, human
Experimental: as §1, §2
To measure mitochondrial superoxide, MB or other antioxidant treated skin fibroblast cells cultured on 60-mm dishes were incubated with fresh complete medium containing 5 μM MitoSOXRed (Life Technologies) at 37° C. After 30 minutes, stained cells were harvested by trypsin digestion and rinsed twice with PBS. Single cell suspensions in 400 μl PBS were prepared for FACS analysis (FACS Canto II; BD). MitoSOX Red was excited by laser at 488 nm, and the data was collected at 582±21 nm. See results in FIG. 10.
To measure mitochondrial superoxide, cells grown on 60-mm dishes were incubated with fresh complete medium containing 5 μM MitoSOX Red (Life Technologies, M36008) at 37° C. After 30 minutes, stained cells were harvested by trypsin digestion and rinsed twice with PBS. Single cell suspensions in 400 μl PBS were prepared for FACS analysis (FACS Canto II; BD). […] Mitochondrial membrane potential (MMP, Life Technologies, M34152) and Annexin V-positive apoptotic cells (BD Pharmingen, 556547) were measured according to manufacturer's protocol. Flow cytometry was performed by FACS Cantoll (BD) and the data were analyzed by FlowJo Software.

Skin tissues = assay: Skin hydration test (DPM9003); type: cell-based; details: MB for 2 weeks
Experimental: Skin tissues were treated with MB for 2 weeks, then skin hydration was detected by using DPM9003 with 4 mm probe. […] See the results obtained in FIG. 13. The noted small variations appear to have been due to pressure and leakage of medium.

[7] = system: normal and HGPS fibroblasts; assay: ATP assay; type: cell-based, human; details: MB 100 nM, 5 weeks, vs mock
Experimental: as §1, §2
Intracellular ATP content was measured by using luminescence ATP detection System (ATPlite, PerkinElmer). Briefly, fibroblast cells were harvested with 0.05% trypsin-EDTA and counted. The same number of 2,500 cells from each fibroblast sample was seeded onto a 96-well black plate (triplicate). After the cells had been lysed with the lysis buffer for five minutes, the substrate solution was added and mixed for another five minutes to conduct the reaction for light generation. After dark adaption for 10 minutes, the luminescence intensity of each well was acquired at luminescence mode with SoftMax Pro software connecting to SpectraMax M5 Microplate Reader.

skin fibroblast cells = assay: Cell viability after H2O2 insults; type: cell-based, human; details: H2O2 1 mM, 60 minutes; low and high concentrations of MB
Experimental: MB or other antioxidant treated skin fibroblast cells were incubated with PBS containing H2O2 at 1 mM for 60 minutes. The cells were then washed three times using PBS and subjected to a cellular stress assay (as described above in 2). See the results obtained in FIG. 11.

HGPS cells [8] = assay: Senescence: SA-β-gal assay and p16 expression analysis; type: cell-based, human; details: MB-treated vs mock-treated HGPS cells
Experimental: SA-β-gal activity assay was performed according to the manufacturer's protocol (#9860; Cell Signaling). Briefly, fibroblasts cells grown on six-well plate were fixed in 1× fixative solution containing 2% formaldehyde and […] for 10 minutes, and then stained overnight at 37° C. with the (3-galactosidase staining solution at pH 6.0 for 15 hours. Images were acquired by Zeiss AX10 microscope with a SPOT PURSUIT camera.

[9] = HGPS+Vehicle vs. HGPS+MB, 100 nM

Compound: CN(C)c1ccc2nc3ccc(N(C)C)cc3[s+]c2c1.[Cl-] [MB, 3,7-bis(dimethylamino)-phenothiazin-5-ium chloride]
- normal gene expression (3D skin tests) [1]: little or no effect on normal gene expression
- number of severely defective mitochondria [2]: significant reduction in the number of severely defective mitochondria
- expression of PGC-1α [3]: stimulated the expression of PGC-1α
- genes affected by MB, down (HGPS fibroblasts; [9]): 0.45%
- genes affected by MB, up (HGPS fibroblasts; [9]): 1.52%
- number of differentially expressed genes (HGPS fibroblasts; Normal+Vehicle vs. HGPS+MB, after one month of MB treatment): 1674
- genes with significant expression changes, down (normal fibroblasts): 0.14%
- genes with significant expression changes, up (normal fibroblasts): 0.19%
- dermis / skin thickness [4]: increase dermis thickness; also recorded: Increases Skin Thickness
- progerin distribution in nucleus (progerin in HGPS cells): clear redistribution of progerin from the nuclear rim into the nucleoplasm
- HP1α protein level (HGPS cells [5]; MB 100 nM, 6 weeks): upregulation of HP1α protein level
- nuclear HP1α staining (HGPS cells [5]; MB 100 nM, 6 weeks): increase in nuclear HP1α staining
- perinuclear heterochromatin organization (TEM) (HGPS cells [5]; MB 8 weeks): readily apparent restoration of perinuclear heterochromatin organization
- ROS levels (MitoSOX, DCFDA) ([6]; MB 100 nM, 8 weeks, vs mock): reductions in ROS levels
- MitoSOX level (mitochondria specific superoxide) ([6]; four weeks treatment, normal and HGPS fibroblasts, comparison with NAC, MitoQ, MitoTEMPO): significant decrease of MitoSOX level
- skin hydration (Skin tissues): did not increase skin hydration
- ATP production [7]: Significant improvements in ATP production
- cell viability upon hydrogen peroxide treatment (skin fibroblast cells): significantly improved cell viability
- senescence (SA-β-gal, p16 expression) (HGPS cells [8]): younger than the mock-treated cells
